# Source: US20120308567A1, “USE OF TYROSINE KINASE INHIBITORS FOR TREATMENT OF PROLACTINOMA” (CEDARS-SINAI MEDICAL CENTER, priority 2010, published 2012)
# Entries after “also recorded” stand apart in the source; their conditions may differ.
# Tests used:
# [1] = tested on: GH3 cells stably expressing HER2CA; assay: RIA of PRL and GH secretion in culture medium of GH3 stable transfectants; assay type: cell-based, rat; conditions: HER2CA GH3 cells, 1 μM
# Protocol: μM) for the indicated times, and Realtime PCR analysis performed. C. GH and PRL secretion in the culture medium determined by RIA. Hormone secretion levels were normalized for cell numbers, Values are mean±SEM. *p<0.05, **p<0.01.
# GH3 rat lacto-somatotroph tumor cells secreting PRL and GH were purchased from the American Type Culture Collection. HER2CA cells were generated by transfection with pcDNA3-HER2CA (V654E) purchased from Addgene (Addgene plasmid 16259). Stable colonies were selected in the presence of 500 μg/ml G418 (Invitrogen). A vector control cell line pcDNA3 was simultaneously established by transfecting pcDNA3 that lacked inserted cDNA. After selection and propagation of stable transfectants, cells were cultured in DMEM/F12 medium containing 15% horse serum, 2.5% FBS, penicillin/streptomycin, and 500 μg/m G418. After synchronization by serum starvation (medium containing 0.2% bovine serum albumin for ˜24 h), cells with treatment agents was grown in fresh serum-depleted medium (0.2% bovine serum albumin), and samples collected at the indicated times.
# RIAs for rat GH and PRL were performed in duplicate, using reagents provided by the National Hormone and Pituitary Program, National Institute of Diabetes and Digestive and Kidney Diseases (Harbor-UCLA Medical Center, Torrance, Calif., USA). Iodination of GH and PRL (5 μg) with iodine-125 (500 μCi) (PerkinElmer life & Analytical Sciences, Boston, Mass., USA) mixed with 0.1 mg Iodo-Gen (Pierce, Rockford, Ill.) was performed using 10-ml columns prepared by G-75 Sephadex (Sigma Chemical Co.). Low interspecies cross-reactivity of the GH and PRL assays were previously shown (8).
# [2] = tested on: GH3 cells stably expressing HER2CA; assay: Cell proliferation assay (cell counts); assay type: cell-based, rat; conditions: for cell number: HER2CA GH3 cells, 0.1-10 μM, 24 h treatment
# Protocol: pcDNA3 and HER2CA cells were plated at a density of 2×10^4 per well in 12-well plates or 4×10^3 cells per well in 96-well plates with growth medium. For 12-well plates, cells were counted by hemocytometer at the indicated times. For 96-well plates, premixed WST-1 cell proliferation reagent (Roche Molecular Biochemicals) was added (1:10) at the indicated times and incubated for 4 h at 37° C. in a humidified atmosphere maintained at 5% CO2, and absorbance was then measured at 450 nm. WST-1 is a colorimetric assay for quantification of cell proliferation and cell viability, based on the cleavage of the tetrazolium salt by mitochondrial dehydrogenases in viable cells.
# [3] = tested on: GH3 cells stably expressing HER2CA; assay: Soft agarose colony-forming assay, HER2CA transfectants; assay type: cell-based, rat; conditions: for suppression of colony formation in soft agar: Her2CA-GH3 cells
# Protocol: B. GH3 cells stably expressing HER2CA or pcDNA3 were plated (4,000 per well) in 96 well plates for the indicated times, and WST assay performed. C. […] Values are mean±SEM. *p<0.05, ** p<0.01, ^‡p<0.05 vs pcDNA3 control, ^†p<0.05 vs HER2CA control, ^‡‡p<0.05 vs pcDNA3 control, ^††p<0.05 vs HER2CA control.
# Base layers consisting of growth medium containing 0.6% low-melting point agarose (Invitrogen) were poured onto 6-well plates and allowed to solidify. Cells (8×10^3 per well) were plated in triplicate in top layers consisting of growth medium containing 0.3% agarose. Seven to ten days later, cells were stained with 0.2% iodonitrotetrazolium chloride (Invitrogen), and colonies composed of 50 cells were counted manually in 5 randomly selected fields.
# human prolactinoma cells [4] = assay: Realtime PCR of PRL in primary human prolactinoma cell cultures; assay type: cell-based; conditions: for suppression of PRL mRNA levels: 24 hr
# Protocol: (§1) A, B, D, and E. After trans-sphenoidal surgery of human prolactinomas, tumor cells were cultured. […] PRL levels in culture media were measured using RIA (B). H&E and PRL staining of tumor and confocal immunocytochemistry of EGFR and HER2 (Tumor A) (C), or for Tumor B (F). Magnification of these figures was 100×. […] PRL levels in culture media were measured using RIA (E). Prolactinoma cells (Tumor B) were treated with U0126 (0.1-5 μM) for 24 hr, and Realtime PCR of PRL performed (G).
# Total RNA was extracted with Trizol reagent (Invitrogen) according to instructions of the manufacturer. The amount and the integrity of RNA were assessed by measurement of absorbance at 260 and 280 nm. Total RNA was reverse-transcribed into first-strand cDNA using iScript cDNA synthesis kit (Bio-Rad Laboratories, Inc.) according to the manufacturer. Quantitative PCR reactions were carried out in the iQ5 Multicolor Real-time PCR Detection System (Bio-Rad Laboratories, Inc.) as described (8). Certified RT^2 primer assays for rat GH, PRL and human PRL were purchased from SuperArray. Primer sequences (Invitrogen) were 5′-[…]-3′ (18S rRNA forward (F)), 5′-[…]-3′ (18S rRNA reverse (R)), 5′-[…]-3′ (human (3-actin F), 5′-[…]-3′ (human (3-actin R), 5′-[…]-3′ (human GAPDH F), 5′-[…]-3′ (human GAPDH R).
# (§2) Human prolactinoma tissues were obtained at the time of surgery (Pituitary Center, Cedars-Sinai Medical Center) and transferred in 0.3% BSA containing DMEM according to an IRB-approved protocol. After washing with medium, tumor tissues were chopped with a sterile scalpel into approximately 1-2 mm pieces. Tissues were rinsed and digested with DMEM containing 0.3% BSA, 0.35% collagenase, and 0.15% hyaluronidase at 37° C. for 30 min The mixture was centrifuged at 1,500 rpm for 5 min at 4° C., and the cell pellet resuspended in an appropriate volume of culture medium containing 10% FBS and antibiotics in 48 well plates. After 24 hr incubation with serum depleted starvation medium (DMEM with 0.3% BSA), treatment agents were added with fresh serum-depleted medium (0.3% BSA), and medium collected for RIA. RNA was extracted after 24 hr treatment. Medium was also collected at baseline. To normalize for cell number effect, the PRL value of treated medium was divided by that of pre-treatment starvation medium to obtain a treated value for each well (n=4).
# human prolactinoma cells [5] = assay: RIA of PRL in culture media of primary human prolactinoma cell cultures; assay type: cell-based; conditions: for suppression of PRL secretion into the culture medium: 24 hr
# Protocol: as §1, §2
# [6] = tested on: GH3 cells stably expressing HER2CA; assay: Western blotting of cleaved caspase-3 (apoptosis); conditions: 0.1-10 μM, 24 hr
# [7] = Tumor A, lapatinib 0.1-10 μM or gefitinib 10 μM
# [8] = human primary prolactinoma tumor cell cultures, tumor not named
SMILES,"PRL secretion, time course of suppression ([1]; 24 and 48 h)",cell number [2],suppression of colony formation in soft agar [3] [%],suppression of PRL mRNA levels (human prolactinoma cells [4]; [7]),"suppression of PRL mRNA levels (human prolactinoma cells [4]; Tumor B, 0.01-10 μM) [%]",suppression of PRL secretion into the culture medium (human prolactinoma cells [5]; [7]) [%],"suppression of PRL secretion into the culture medium (human prolactinoma cells [5]; Tumor B, 0.01-10 μM) [%]",induction of cleaved caspase-3 [6],suppression of PRL secretion ([1]; 24 h) [%],suppression of PRL secretion ([1]; 48 h) [%],"suppression of cell number, HER2 overexpressing vs pcDNA3 transfectants ([2]; pcDNA3 and HER2CA transfectants compared)","colony formation in soft agar ([3]; HER2CA GH3 cells, 0.1-10 μM every third day)",suppression of human PRL mRNA expression (human prolactinoma cells [4]; [8]) [%],suppression of human PRL secretion (human prolactinoma cells [5]; [8]) [%]
COc1cc2ncnc(Nc3ccc(F)c(Cl)c3)c2cc1OCCCN1CCOCC1 [gefitinib],suppressed PRL secretion only at 24 h,decreased in a dose-dependent manner,~50,no effect,~45,~50,~40,dose-dependently induced cleaved caspase3,,,,,,
"CS(=O)(=O)CCNCc1ccc(-c2ccc3ncnc(Nc4ccc(OCc5cccc(F)c5)c(Cl)c4)c3c2)o1 [lapatinib, Lapatinib]",,decreased in a dose-dependent manner,~80,~90%,~45,~70,~60,dose-dependently induced cleaved caspase3; also recorded: induced cleaved-caspase 3,40,40,enhanced in HER2 overexpressing transfectants,fewer HER2CA colonies,~80,~70
